In BindingDB's records for doi:10.1021/jm800936s (University of Oxford, 2008) one finds IC50 data, which are given here for 5 compounds.

One may read the IC50 as the concentration at which inhibition is half-maximal. Low readings indicate inhibition by little substance, high ones a need for much substance.

The target of this assay is T1, Lysine-specific demethylase 4E (Homo sapiens, UniProt B2RXH2).
T1 sequence (B2RXH2 whole entry): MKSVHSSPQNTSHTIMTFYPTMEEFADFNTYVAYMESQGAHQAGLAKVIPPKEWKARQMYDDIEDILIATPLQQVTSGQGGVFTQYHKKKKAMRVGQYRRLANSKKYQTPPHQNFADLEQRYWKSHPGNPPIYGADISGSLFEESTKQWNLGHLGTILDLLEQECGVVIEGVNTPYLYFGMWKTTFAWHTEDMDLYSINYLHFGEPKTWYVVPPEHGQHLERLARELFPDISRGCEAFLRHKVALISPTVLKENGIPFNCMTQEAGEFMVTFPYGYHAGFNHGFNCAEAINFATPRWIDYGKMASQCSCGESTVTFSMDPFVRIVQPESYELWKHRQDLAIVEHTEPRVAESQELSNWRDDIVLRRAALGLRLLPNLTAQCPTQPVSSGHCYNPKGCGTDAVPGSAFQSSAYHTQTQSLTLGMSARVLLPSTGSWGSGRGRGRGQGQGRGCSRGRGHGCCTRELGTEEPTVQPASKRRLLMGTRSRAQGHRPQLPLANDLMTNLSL
Description: FDH Coupled Inhibition Assay. Conditions: pH 7.5; 37 °C. How it is done:
A coupled-assay for JMJD2E activity employing formaldehyde dehydrogenase (FDH) from Pseudomonas putida was developed. Formaldehyde release by demethylation of the histone peptide substrate was monitored by its oxidation to give formate as catalyzed by FDH, which is carried out concomitantly with the reduction of NAD+. The production of NADH was monitored by fluorescence spectroscopy.
On to `O=C(O)c1cccnc1C(=O)O` [pyridine-2,3-dicarboxylic acid], for which the IC50 is more than 5 mM.
As for `O=C(O)c1cncc(C(=O)O)c1` [pyridine-3,5-dicarboxylic acid], the IC50 was more than 10 mM.
`COC(=O)c1ccnc(-c2cc(C(=O)O)ccn2)c1` [2-[4-(methoxycarbonyl)pyridin-2-yl]pyridine-4-carboxylic acid] registered an IC50 of 0.0066 mM.
On to `O=C(O)c1ccncc1C(=O)O` [pyridine-3,4-dicarboxylic acid], for which the IC50 was more than 10 mM.
`CCCC(=O)O` [butanoic acid]: the IC50 was more than 10 mM.
